Read-outs that look alike come from different tables or passages of the source.
Experiments:
Type in all cases: cell-based
[1] = biological target: T1, STAT3 (Homo sapiens, UniProt P40763); assay: HiBiT assay, STAT3 degradation in STAT3-HiBiT KI HeLa cells; conditions: for DC50: read-out: STAT3 Degradation (HeLa 24 h HiBit) DC50
T1 construct: This cell line is a clone created by using CRISPR-Cas9 to fuse HiBiT to the 3′ end of STAT3 in HeLa cells; host or cells: STAT3-HiBiT KI HeLa cell line (CRISPR-Cas9 knock-in clone)
T1 sequence (P40763 whole entry): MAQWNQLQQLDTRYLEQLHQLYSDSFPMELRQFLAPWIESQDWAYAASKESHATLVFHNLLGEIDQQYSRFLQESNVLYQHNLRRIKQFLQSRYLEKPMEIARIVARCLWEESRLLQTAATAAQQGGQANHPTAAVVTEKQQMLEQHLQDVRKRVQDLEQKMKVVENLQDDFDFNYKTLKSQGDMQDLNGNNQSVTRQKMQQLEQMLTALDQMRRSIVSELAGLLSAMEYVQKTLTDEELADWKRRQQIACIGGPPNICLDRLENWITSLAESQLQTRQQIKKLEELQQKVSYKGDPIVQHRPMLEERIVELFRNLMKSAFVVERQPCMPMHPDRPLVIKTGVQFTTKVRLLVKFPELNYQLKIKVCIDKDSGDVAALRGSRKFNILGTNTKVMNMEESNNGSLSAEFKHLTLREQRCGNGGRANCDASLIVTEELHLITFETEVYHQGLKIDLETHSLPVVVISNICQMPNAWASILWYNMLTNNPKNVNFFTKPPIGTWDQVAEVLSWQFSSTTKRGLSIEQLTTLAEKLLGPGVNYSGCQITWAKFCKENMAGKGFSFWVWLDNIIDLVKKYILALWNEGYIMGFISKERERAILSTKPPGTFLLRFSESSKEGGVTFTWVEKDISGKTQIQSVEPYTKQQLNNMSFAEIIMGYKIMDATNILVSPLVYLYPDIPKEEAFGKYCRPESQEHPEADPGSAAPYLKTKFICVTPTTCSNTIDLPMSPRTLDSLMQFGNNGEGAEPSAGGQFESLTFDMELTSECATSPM
Experimental: STAT3 degradation may be determined by HiBiT assay. STAT3-HiBiT KI HeLa cell line, which is a clone created by using CRTISPR-Cas9 to fuse HiBiT to the 3′ end of STAT3 in HeLa cells, may be used for this assay. In a typical procedure, cells seeded at certain amounts of cells (e.g., 20000 cells) per well are incubated with serially diluted compounds for certain period of time (e.g., 24 hours) under certain conditions (e.g., at 37° C. with 5% CO2). At the end of treatment, Nano-Glo HiBiT Lytic Detection reagents is added to the wells and luminescence is acquired on TECAN SPARK plate reader. Untreated cells are used as control. Data points are fit with a four-parameter equation to generate a concentration-response curve. IC50 values are calculated using a nonlinear regression analysis of the mean±SD from triplicate.
STAT3-HiBiT KI HeLa cell line was purchased from Promega. This cell line is a clone created by using CRISPR-Cas9 to fuse HiBiT to the 3′ end of STAT3 in HeLa cells. DMEM medium and FBS were purchased from Gibco/Thermo Fisher Scientific. STAT3 degradation was determined based on quantification of luminescent signal using Nano-Glo HiBiT Lytic Detection System. In a typical procedure, cells seeded at 20000 cells per well in 96-well white plates (Corning) were incubated with serially diluted compounds for 24 hours at 37° C. with 5% CO2. At the end of treatment, Nano-Glo HiBiT Lytic Detection reagents was added to the wells and luminescence was acquired on TECAN SPARK plate reader. Untreated cells were used as control. Data points were fit with a four-parameter equation to generate a concentration-response curve. IC50 values were calculated using a nonlinear regression analysis of the mean±SD from triplicate.

[2] = test system: SU-DHL-1 cells; assay: CellTiter-Glo 2.0 cell viability assay, SU-DHL-1; conditions: Homo sapiens, 96 h, 4 days
Experimental: (§1) For example, cell viability may be determined by CellTiter-Glo 2.0 Cell Viability Assay. In a typical procedure, cells seeded at certain amounts of cells (e.g., 1000 cells) per well are incubated with serially diluted compounds for certain period (e.g., 4 days) under certain conditions (e.g., at 37° C. with 5% CO2). At the end of treatment, CellTiter-Glo 2.0 is added to the wells and luminescence is acquired on TECAN SPARK plate reader. Untreated cells are used as control, Data points are fit with an equation (e.g., a four-parameter equation) to generate a concentration-response curve. IC50 values are calculated using a nonlinear regression analysis of the mean±SD from triplicate.
(§2) SU-DHL-1 and SUP-M2 cell viability was determined by CellTiter-Glo 2.0 Cell Viability Assay (Promega). SU-DHL-1 cell line was purchased from ATCC (Manassas, VA) and SUP-M2 (ACC-509) was purchased from DSMZ (Germany). RPMI 1640 medium and fetal bovine serum (FBS) were purchased from Gibco/Thermo Fisher Scientific. In a typical procedure, cells seeded at 1000 cells per well in 384-well white plates (Corning) were incubated with serially diluted compounds for 4 days at 37° C. with 5% C02. At the end of treatment, CellTiter-Glo 2.0 was added to the wells and luminescence was acquired on TECAN SPARK plate reader. Untreated cells were used as control. Data points were fit with a four-parameter equation to generate a concentration-response curve. IC50 values were calculated using a nonlinear regression analysis of the mean±SD from triplicate.

[3] = test system: SUP-M2 cells; assay: CellTiter-Glo 2.0 cell viability assay, SUP-M2; conditions: SUP-M2, 96 h, 4 days
Experimental: as §1, §2

| Structure (SMILES) | Dmax at 1 µM ([1]; 24 h) [%] | DC50 ([1]; 24 h) [nM] | IC50 [2] [nM] | IC50 [3] [nM] | DC50 [1] [nM] |
| --- | --- | --- | --- | --- | --- |
| Cc1ncsc1-c1ccc([C@H](C)NC(=O)[C@@H]2C[C@@H](O)CN2C(=O)[C@@H](n2cc(CCC(=O)N3CC[C@H]4CC[C@@H](C(=O)N[C@@H](CCC(N)=O)C(=O)NCc5cccc(Cl)c5)N4C(=O)[C@@H](NC(=O)c4cc5cc(C(=O)P(=O)(O)O)ccc5[nH]4)C3)nn2)C(C)(C)C)cc1 [Compound 8, (2-(((5S,8S,10aR)-8-(((S)-5-amino-1-((3-chlorobenzyl)amino)-1,5-dioxopentan-2-yl)carbamoyl)-3-(3-(1-((S)-1-((2S,4R)-4-hydroxy-2-(((S)-1-(4-(4-methylthiazol-5-yl)phenyl)ethyl)carbamoyl)pyrrolidin-1-yl)-3,3-dimethyl-1-oxobutan-2-yl)-1H-1,2,3-triazol-4-yl)propanoyl)-6-oxodecahydropyrrolo[1,2-a][1,5]diazocin-5-yl)carbamoyl)-1H-indole-5-carbonyl)phosphonic acid] | > 80 | 100 to 1000 | 100 to 1000 | 10 to 100 |  |
| CC(=O)N1CC[C@H]2CC[C@@H](C(=O)N[C@@H](CCC(N)=O)COc3cccc(CCCc4cn([C@H](C(=O)N5C[C@H](O)C[C@H]5C(=O)N[C@@H](CO)c5ccc(-c6scnc6C)cc5)C(C)(C)C)nn4)c3Cl)N2C(=O)[C@@H](NC(=O)c2cc3cc(C(=O)P(=O)(O)O)ccc3[nH]2)C1 [Compound 39, (2-(((5S,8S,10aR)-3-acetyl-8-(((S)-5-amino-1-(2-chloro-3-(3-(1-((S)-1-((2S,4R)-4-hydroxy-2-(((R)-2-hydroxy-1-(4-(4-methylthiazol-5-yl)phenyl)ethyl)carbamoyl)pyrrolidin-1-yl)-3,3-dimethyl-1-oxobutan-2-yl)-1H-1,2,3-triazol-4-yl)propyl)phenoxy)-5-oxopentan-2-yl)carbamoyl)-6-oxodecahydropyrrolo[1,2-a][1,5]diazocin-5-yl)carbamoyl)-1H-indole-5-carbonyl)phosphonic acid] | > 80 | < 10 | < 10 | < 10 |  |
| Cc1ncsc1-c1ccc([C@H](C)NC(=O)[C@@H]2C[C@@H](O)CN2C(=O)[C@@H](n2cc(CCCC(=O)N3CC[C@H]4CC[C@@H](C(=O)N[C@@H](CCC(N)=O)C(=O)NCc5cccc(Cl)c5)N4C(=O)[C@@H](NC(=O)c4cc5cc(C(=O)P(=O)(O)O)ccc5[nH]4)C3)nn2)C(C)(C)C)cc1 [Compound 9, (2-(((5S,8S,10aR)-8-(((S)-5-amino-1-((3-chlorobenzyl)amino)-1,5-dioxopentan-2-yl)carbamoyl)-3-(4-(1-((S)-1-((2S,4R)-4-hydroxy-2-(((S)-1-(4-(4-methylthiazol-5-yl)phenyl)ethyl)carbamoyl)pyrrolidin-1-yl)-3,3-dimethyl-1-oxobutan-2-yl)-1H-1,2,3-triazol-4-yl)butanoyl)-6-oxodecahydropyrrolo[1,2-a][1,5]diazocin-5-yl)carbamoyl)-1H-indole-5-carbonyl)phosphonic acid] | > 80 | 10 to 100 | 10 to 100 | 10 to 100 |  |
| Cc1ncsc1-c1ccc([C@H](C)NC(=O)[C@@H]2C[C@@H](O)CN2C(=O)[C@@H](n2cc(CCCCCCC(=O)N3CC[C@H]4CC[C@@H](C(=O)N[C@@H](CCC(N)=O)C(=O)NC(c5ccccc5)c5ccccc5)N4C(=O)[C@@H](NC(=O)c4cc5cc(C(=O)P(=O)(O)O)ccc5[nH]4)C3)nn2)C(C)(C)C)cc1 [Compound 59, (2-(((5S,8S,10aR)-8-(((S)-5-amino-1-(benzhydrylamino)-1,5-dioxopentan-2-yl)carbamoyl)-3-(7-(1-((S)-1-((2S,4R)-4-hydroxy-2-(((S)-1-(4-(4-methylthiazol-5-yl)phenyl)ethyl)carbamoyl)pyrrolidin-1-yl)-3,3-dimethyl-1-oxobutan-2-yl)-1H-1,2,3-triazol-4-yl)heptanoyl)-6-oxodecahydropyrrolo[1,2-a][1,5]diazocin-5-yl)carbamoyl)-1H-indole-5-carbonyl)phosphonic acid] |  |  | > 1000 | > 1000 | > 1000 |
| CC(=O)N1CC[C@H]2CC[C@@H](C(=O)N[C@@H](CCC(N)=O)COc3cccc(CCCc4cn([C@H](C(=O)N5C[C@H](O)C[C@H]5C(=O)N[C@@H](C)c5ccc(-c6scnc6C)cc5)C5CCOCC5)nn4)c3Cl)N2C(=O)[C@@H](NC(=O)c2cc3cc(C(=O)P(=O)(O)O)ccc3[nH]2)C1 [Compound 23, (2-(((5S,8S,10aR)-3-acetyl-8-(((S)-5-amino-1-(2-chloro-3-(3-(1-((S)-2-((2S,4R)-4-hydroxy-2-(((S)-1-(4-(4-methylthiazol-5-yl)phenyl)ethyl)carbamoyl)pyrrolidin-1-yl)-2-oxo-1-(tetrahydro-2H-pyran-4-yl)ethyl)-1H-1,2,3-triazol-4-yl)propyl)phenoxy)-5-oxopentan-2-yl)carbamoyl)-6-oxodecahydropyrrolo[1,2-a][1,5]diazocin-5-yl)carbamoyl)-1H-indole-5-carbonyl)phosphonic acid] | > 80 | < 10 | < 10 | < 10 |  |
| CCS(=O)(=O)c1ccc(CNC(=O)[C@H](CCC(N)=O)NC(=O)[C@@H]2CC[C@@H]3CCN(C(=O)CCCCc4cn([C@@H](C(=O)N5C[C@H](O)C[C@H]5C(=O)N[C@H](C)c5ccc(-c6scnc6C)cc5)C5CCN(C)CC5)nn4)C[C@H](NC(=O)c4cc5cc(C(=O)P(=O)(O)O)ccc5[nH]4)C(=O)N32)cc1 [Compound 21, (2-(((5S,8S,10aR)-8-(((S)-5-amino-1-((4-(ethylsulfonyl)benzyl)amino)-1,5-dioxopentan-2-yl)carbamoyl)-3-(5-(1-((R)-2-((2S,4R)-4-hydroxy-2-(((R)-1-(4-(4-methylthiazol-5-yl)phenyl)ethyl)carbamoyl)pyrrolidin-1-yl)-1-(1-methylpiperidin-4-yl)-2-oxoethyl)-1H-1,2,3-triazol-4-yl)pentanoyl)-6-oxodecahydropyrrolo[1,2-a][1,5]diazocin-5-yl)carbamoyl)-1H-indole-5-carbonyl)phosphonic acid] | > 80 | < 10 |  | < 10 |  |
| CCS(=O)(=O)c1ccc(CNC(=O)[C@H](CCC(N)=O)NC(=O)[C@@H]2CC[C@@H]3CCN(C(=O)CCCCc4cn([C@@H](C(=O)N5C[C@H](O)C[C@H]5C(=O)N[C@H](C)c5ccc(-c6scnc6C)cc5)C5CCN(C(C)=O)CC5)nn4)C[C@H](NC(=O)c4cc5cc(C(=O)P(=O)(O)O)ccc5[nH]4)C(=O)N32)cc1 [Compound 22, (2-(((5S,8S,10aR)-3-(5-(1-((R)-1-(1-acetylpiperidin-4-yl)-2-((2S,4R)-4-hydroxy-2-(((R)-1-(4-(4-methylthiazol-5-yl)phenyl)ethyl)carbamoyl)pyrrolidin-1-yl)-2-oxoethyl)-1H-1,2,3-triazol-4-yl)pentanoyl)-8-(((S)-5-amino-1-((4-(ethylsulfonyl)benzyl)amino)-1,5-dioxopentan-2-yl)carbamoyl)-6-oxodecahydropyrrolo[1,2-a][1,5]diazocin-5-yl)carbamoyl)-1H-indole-5-carbonyl)phosphonic acid] | > 80 | < 10 |  | < 10 |  |
| CCS(=O)(=O)c1ccc(CNC(=O)[C@H](CCC(N)=O)NC(=O)[C@@H]2CC[C@@H]3CCN(C(=O)CCCCCc4cn([C@H](C(=O)N5C[C@H](O)C[C@H]5C(=O)N[C@@H](COCCOCCOCCOC)c5ccc(-c6scnc6C)cc5)C(C)(C)C)nn4)C[C@H](NC(=O)c4cc5cc(C(=O)P(=O)(O)O)ccc5[nH]4)C(=O)N32)cc1 [Compound 45] | > 80 | 10 to 100 |  | 10 to 100 |  |
